Experimental data from patent US20070129380A1.

How the values were obtained:
Botrytis cinerea = assay: Activity against gray mold on bell pepper leaves caused by Botrytis cinerea, protective application; format: in vivo; details: 250 ppm active compound, sprayed to runoff, bell pepper seedlings, inoculated next day, assessed after 5 days; untreated plants 90% infected
Method: The active compounds were prepared separately as a stock solution with 0.25% by weight of active compound in acetone or DMSO. 1% by weight of the emulsifier Uniperol® EL (wetting agent having emulsifying and dispersing action based on ethoxylated alkyl-phenols) was added to this solution. The stock solutions of the active compounds were diluted with water to the desired concentration. 1) Activity Against Gray Mold on Bell Pepper Leaves Caused by Botrytis cinerea, Protective Application […] The next day, the treated plants were inoculated with a spore suspension of Botrytis cinerea, this contained 1.7×10^6 spores/ml in a 2% strength aqueous biomalt solution. The test plants were then placed in a climate-chamber at 22-24° C. and high atmospheric humidity.

[1] = test system: Pyrenophora [syn. Drechslera] teres; assay: Activity against net blotch of barley caused by Pyrenophora teres; format: in vivo; details: 250 ppm active compound, sprayed to runoff, barley seedlings, inoculated 24 hours after drying, assessed after 6 days; untreated plants 80% infected
Method: The active compounds were prepared separately as a stock solution with 0.25% by weight of active compound in acetone or DMSO. 1% by weight of the emulsifier Uniperol® EL (wetting agent having emulsifying and dispersing action based on ethoxylated alkyl-phenols) was added to this solution. The stock solutions of the active compounds were diluted with water to the desired concentration. 4) Activity Against Net Blotch of Barley Caused by Pyrenophora teres […] Drechslera] teres, the causative agent of net blotch. The test plants were subsequently placed in a greenhouse at temperatures of between 20 and 24° C. and a relative atmospheric humidity of 95 to 100%. After 6 days, the extent of development of the disease was determined visually in % of infection of the total leaf area.

CC(C)Nc1nc(C(N)=S)nc(Cl)c1-c1c(F)cccc1Cl [Compound I-3]
extent of the fungal infection on the leaves determined visually in % (Botrytis cinerea): not infected

Cc1nc(C(N)=S)nc(NC(C)C)c1-c1c(F)cc(F)cc1F [Compound I-23]
melting point: 158 °C

CCN(CC)c1nc(C(N)=S)nc(Cl)c1-c1c(F)cc(F)cc1F [Compound I-19]
extent of development of the disease determined visually in % of infection of the total leaf area [1]: 10%
melting point: 55 to 58 °C

C[C@H](Nc1nc(C(N)=S)nc(Cl)c1-c1c(F)cc(F)cc1F)C(F)(F)F [Compound I-2, (S)-4-chloro-6-(2,2,2-trifluoro-1-methylethylamino)-5-(2,4,6-trifluorophenyl)pyrimidine-2-thiocarbamide]
extent of the fungal infection on the leaves determined visually in % (Botrytis cinerea): not infected

CCC(C)Nc1nc(C(N)=S)nc(Cl)c1-c1c(F)cccc1Cl (stereo not drawn) [Compound I-8, 4-sec-butylamino-6-chloro-5-(2-chloro-6-fluorophenyl)pyrimidine-2-thiocarbamide]
extent of the fungal infection on the leaves determined visually in % (Botrytis cinerea): not infected
melting point: 147 to 150 °C

CC(C)Nc1nc(C(N)=S)nc(Cl)c1-c1c(F)cc(F)cc1F [Compound I-4]
extent of the fungal infection on the leaves determined visually in % (Botrytis cinerea): not infected
melting point: 145 to 149 °C
